US20240043419A1, “CLASS OF 1,7-NAPHTHYRIDINE COMPOUNDS AND APPLICATION THEREOF” (Medshine Discovery Inc., priority 2020, published 2024)
pIC50: −log10 of the molar value.

How the values were obtained:
[1] = test system: subcutaneous xenograft tumor of human colorectal cancer LoVo cells; assay: In vivo pharmacodynamics on subcutaneous xenograft tumor of human colorectal cancer LoVo cells in BALB/c nude mouse model; set-up: species or system BALB/c nude mice; details: oral 40 mg/kg, twice a day, 4 days on and 3 days rest per week, 21 days of administration
Method: In this assay, the inhibitory effect of the compound of the present disclosure on the growth of subcutaneous xenograft tumor of human colorectal cancer LoVo cells was studied at an oral dosage of 40 mg/kg, twice a day, with 4 consecutive days of administration and 3 days of rest per week.
Assay method: The selected assay animals (provided by Shanghai Sippe-Bk Lab Animal Co., Ltd.) were BALB/c nude mice, 6-8 weeks old, weighing 18-22 grams.
Human colon cancer LoVo cells were cultured in a single layer in vitro with a culture condition of Ham's F-12 medium plus 10% fetal bovine serum, 100 U/mL penicillin, 100 μg/mL streptomycin and 2 mM glutamine, 37° C., 5% CO2. Cells were routinely digested and passaged with trypsin-EDTA twice a week. When the cell saturation was 80%-90%, the cells were collected, counted and inoculated. 0.1 mL (10×10^6 cells) of LoVo cells were subcutaneously inoculated on the right back of each nude mouse, and the mice were grouped and administered when the average tumor volume reached 146 mm^3. Tumor diameters were measured twice a week with vernier calipers. The calculation formula of tumor volume was: V=0.5 a×b^2, wherein a and b represent the long and short diameters of tumor, respectively.
The antitumor efficacy of the compound was evaluated by TGI (%) or relative tumor proliferation rate T/C (%). TGI (%) reflected the inhibition rate of tumor growth. […]

[2] = Pharmacokinetics in vivo in mice, single intravenous or single oral administration, plasma LC-MS/MS; details: mouse, female Balb/c Nude mice
Method: The purpose of this assay is to study the pharmacokinetics of the compound of the present disclosure in the plasma of female Balb/c Nude mice after a single intravenous administration or a single oral administration.
In the intravenous group, plasma samples were collected at 9 time points of 5 minutes, 15 minutes, 30 minutes, 1 hour, 2 hours, 4 hours, 6 hours, 8 hours and 24 hours after administration; in the oral group, plasma samples were collected at 8 time points of 15 minutes, 30 minutes, 1 hour, 2 hours, 4 hours, 6 hours, 8 hours and 24 hours after administration; the samples were analyzed by LC-MS/MS for the plasma concentration data of the compound of the present disclosure, and the pharmacokinetic parameters, such as peak concentration, time to peak, clearance rate, half-life, maximum plasma drug concentration, area under the drug-time curve were calculated.

CHK1(p-Ser345) = assay: Assay of CHK1(p-Ser345) in vitro: inhibition of CHK1 phosphorylation in HT29 cells after 4NQO, alpha screen; format: cell-based; details: Homo sapiens, read-out: % Inhibition of CHKI phosphorylation; for inhibition at 0.0002 µM: HT-29, 0.2 nM compound; for inhibition at 0.025 µM: HT-29, 25 nM compound
Method: The assay process was as follows: • 1) When cells HT29 grew to about 80% confluence, the cells were digested and plated on a 96-well plate (80,000 cells/well), and 90 ul of cell suspension was added to each well; the cell plate was placed in a 5% carbon dioxide, 37° C. incubator overnight; • 2) The next day, the supernatant was removed from the cell plate, and 90 ul of compounds with different concentrations were added; the plate was incubated at 37° C. for 1 hour, and then 10 ul of 7 uM 4NQO medium was added; the plate was incubated at 37° C. for 1 hour; • 3) After the incubation was completed, the supernatant was removed, and 50 ul/well cell lysate was added; the plate was shaken and incubated at room temperature for 50 minutes; • 4) After the incubation was completed, 8 ul/well cell lysate was transferred to a 384-well detection plate, and 5 ul of Acceptor was added; the plate was incubated at room temperature for 2 hours; • 5) Then 2 ul of Donor was added, and the plate was incubated at room temperature overnight; • 6) After the incubation was completed, alpha screen reading was performed.

tumor cell line LoVo = assay: in vitro LoVo cell proliferation inhibition assay (CellTiter-Glo cell viability); format: cell-based; details: Homo sapiens, LoVo cells
Method: In this assay, the effect of the compounds on inhibiting cell proliferation was studied by detecting the effect of the compounds on the cell viability in vitro in the tumor cell line LoVo.
Cell viability detection using CellTiter-Glo luminescence assay
The following steps were performed according to the instructions of the Promega CellTiter-Glo Luminescent Cell Viability Detection Kit (Promega-G7573).
(1). A CellTiter-Glo buffer was thawed and allowed to stand to reach room temperature.
(2). A CellTiter-Glo substrate was allowed to stand to reach room temperature.
(3). The CellTiter-Glo buffer was added to the CellTiter-Glo substrate in a bottle to dissolve the substrate to formulate a CellTiter-Glo working solution.
(4). The working solution was vortexed slowly for fully dissolution.
(5). A cell culture plate was taken out and allowed to stand for 30 minutes to equilibrate to room temperature.
(6). 50 μL (equal to half the volume of cell culture solution in each well) of the CellTiter-Glo working solution was added into each well. The cell plate was wrapped with aluminum foil to protect the cell plate from light.
(7). The culture plate was shaken on an orbital shaker for 2 minutes to induce cell lysis.
(8). The culture plate was left at room temperature for 10 minutes to stabilize luminescent signals.
(9). The luminescent signals were detected on a plate reader (SpectraMax i3x of MolecμLar Devices).
The inhibition rate (IR) of the assay compounds was calculated by the following formula:
IR (%)=(1−(RLU of compound−RLU of blank control)/(RLU of vehicle control−RLU of blank control))*100%.
The inhibition rates of different concentrations of compounds were calculated in Excel, and then GraphPad Prism software was used to draw inhibition curves and calculate relevant parameters, including the minimum inhibition rate, maximum inhibition rate, and IC50.

| SMILES | pIC50 (tumor cell line LoVo) | inhibition at 0.0002 µM (CHK1(p-Ser345)) [%] | inhibition at 0.025 µM (CHK1(p-Ser345)) [%] | also measured |
| --- | --- | --- | --- | --- |
| C[C@@H]1COCCN1c1cc(-c2ccnn2C)c2c(F)cnc(-c3ccn[nH]3)c2n1 [Example 1] | 7.19 | 10.8 | 98 | TGI (%) [1]: 92.4%; clearance ([2]; Intravenous injection (1 mg/kg), read-out: Clearance rate): 13.7 mL/min/kg; half-life ([2]; Intravenous injection (1 mg/kg), read-out: Half-life T1/2 (converted)): 31.7 min; AUC(0-t) ([2]; Oral (10 mg/kg), read-out: Area under the drug-time curve AUC0-24 h): 41.2 µM·h; Cmax ([2]; Oral (10 mg/kg), read-out: Maximum plasma drug concentration Cmax): 23.6 µM |
| Cc1cnn(C)c1-c1cc(N2CCOC[C@H]2C)nc2c(-c3ccn[nH]3)ncc(F)c12 [Example 2] | 7.11 |  |  |  |
| C[C@@H]1COCCN1c1cc(C2(C#N)CCOCC2)c2c(F)cnc(-c3ccn[nH]3)c2n1 [Example 3] | 7.21 | 4.52 | 93.2 |  |
| C[C@@H]1COCCN1c1cc(-c2cnnn2C)c2c(F)cnc(-c3ccn[nH]3)c2n1 [Example 4] | 6.85 |  |  |  |
| C[C@@H]1COCCN1c1cc(-c2ncnn2C)c2c(F)cnc(-c3ccn[nH]3)c2n1 [Example 6] | 6.40 |  |  |  |
| CC(C)Oc1cc(N2CCOC[C@H]2C)nc2c(-c3ccn[nH]3)ncc(F)c12 [Example 8] | 6.74 | 3.79 | 75.9 |  |
| C[C@@H]1COCCN1c1cc(C2CC2)c2c(F)cnc(-c3ccn[nH]3)c2n1 [Example 9] | 7.05 |  |  |  |
| C[C@@H]1COCCN1c1cc(C2=CCOCC2)c2c(F)cnc(-c3ccn[nH]3)c2n1 [Example 10] | 7.09 |  |  |  |
| C[C@@H]1COCCN1c1cc(C2CCOCC2)c2c(F)cnc(-c3ccn[nH]3)c2n1 [Example 11] | 7.23 |  |  |  |
| C[C@@H]1COCCN1c1cc(C2(O)CCOCC2)c2c(F)cnc(-c3ccn[nH]3)c2n1 [Example 12] | 6.89 |  |  |  |
| C[C@@H]1COCCN1c1cc(N2CCOCC2)c2c(F)cnc(-c3ccn[nH]3)c2n1 [Example 13] | 7.18 |  |  |  |
| Cn1nccc1-c1cc(N2C3CCC2COC3)nc2c(-c3ccn[nH]3)ncc(F)c12 [Example 28] | 6.60 |  |  |  |

More lines, main results first:

| pIC50 (tumor cell line LoVo) | SMILES | inhibition at 0.0002 µM (CHK1(p-Ser345)) [%] | inhibition at 0.025 µM (CHK1(p-Ser345)) [%] | also measured |
| --- | --- | --- | --- | --- |
| 6.99 | Cc1nn(C)cc1-c1cc(N2CCOC[C@H]2C)nc2c(-c3ccn[nH]3)ncc(F)c12 [Example 14] |  |  |  |
| 6.74 | Cc1noc(C)c1-c1cc(N2CCOC[C@H]2C)nc2c(-c3ccn[nH]3)ncc(F)c12 [Example 15] |  |  |  |
| 7.51 | Cc1cc(-c2cc(N3CCOC[C@H]3C)nc3c(-c4ccn[nH]4)ncc(F)c23)n(C)n1 [Example 16] | 12.3 | 97.5 |  |
| 7.00 | Cc1n[nH]c(C)c1-c1cc(N2CCOC[C@H]2C)nc2c(-c3ccn[nH]3)ncc(F)c12 [Example 17] |  |  |  |
| 6.84 | Cc1nnn(C)c1-c1cc(N2CCOC[C@H]2C)nc2c(-c3ccn[nH]3)ncc(F)c12 [Example 18] |  |  |  |
| 7.39 | Cc1cnccc1-c1cc(N2CCOC[C@H]2C)nc2c(-c3ccn[nH]3)ncc(F)c12 [Example 20] | 6.34 | 95.5 |  |
| 7.11 | Cc1ncccc1-c1cc(N2CCOC[C@H]2C)nc2c(-c3ccn[nH]3)ncc(F)c12 [Example 21] |  |  |  |
| 7.10 | C[C@@H]1COCCN1c1cc(-c2ccncc2F)c2c(F)cnc(-c3ccn[nH]3)c2n1 [Example 22] |  |  |  |
| 7.08 | C[C@@H]1COCCN1c1cc(-c2ccc(S(C)(=O)=O)cc2)c2c(F)cnc(-c3ccn[nH]3)c2n1 [Example 23] |  |  |  |
| 7.23 | C[C@@H]1COCCN1c1cc(-c2ccnc3[nH]ccc23)c2c(F)cnc(-c3ccn[nH]3)c2n1 [Example 24] | 9.72 | 88 |  |
| 6.43 | C[C@@H]1COCCN1c1cc(N2CCC3(CNC3)C2)c2c(F)cnc(-c3ccn[nH]3)c2n1 [Example 27] | 8.45 | 78.3 |  |
| 6.32 | Cn1nccc1-c1cc(N2CC3CCC(C2)O3)nc2c(-c3ccn[nH]3)ncc(F)c12 [Example 29] | 5.34 | 64.5 |  |
